Patent US8871934B2, “Fluorene compound and pharmaceutical use thereof” (Japan Tobacco Inc., priority 2008, dated 2014)
Where two headings read alike, the source gives them in different places.

Biological target: human PDHK2 (hPDHK2) (Homo sapiens (Human), UniProt Q15119)
Assay: Inhibitory action of PDHK activity in vitro (kinase reaction, residual PDH activity measured)
Assay type: biochemical
[1] = PDHK inhibitory activity, class symbol of IC50
[2] = read-out: PDHK inhibitory activity IC50

SMILES	IC50 [1]	IC50 [2]
OC1(C(F)(F)F)c2ccccc2-c2c(-c3ccccn3)cccc21 (centres unmarked) [compound 134]	> 1000 nM	> 10000 nM
Cc1cccc(-c2ccc3c(c2)C(O)(C(F)(F)F)c2ccccc2-3)c1 (centres unmarked) [compound 137]	> 1000 nM	1010 nM
C=C(C)c1cccc2c1-c1ccccc1C2(O)C(F)(F)F (centres unmarked) [compound 138]	> 1000 nM	> 10000 nM
OC1(C(F)(F)F)c2ccccc2-c2c(-c3ccncc3)cccc21 (centres unmarked) [compound 139]	> 1000 nM	> 10000 nM
OC1(C(F)(F)F)c2ccccc2-c2c(-c3nnco3)cccc21 (centres unmarked) [compound 140]	> 1000 nM	2400 nM
N#Cc1cc(C(=O)N2CCC2)cc2c1-c1ccccc1C2(O)C(F)(F)F (centres unmarked) [compound 141]	< 100 nM	77 nM
Cc1noc(-c2cccc3c2-c2ccccc2C3(O)C(F)(F)F)n1 (centres unmarked) [compound 142]	100 to 1000 nM	543 nM
CS(=O)(=O)c1cccc2c1-c1ccccc1C2(O)C(F)(F)F (centres unmarked) [compound 143]	> 1000 nM	> 10000 nM
OC1(C(F)(F)F)c2ccccc2-c2ccc(-c3cccs3)cc21 (centres unmarked) [compound 144]	> 1000 nM	1120 nM
OC1(C(F)(F)F)c2ccccc2-c2ccc(-c3ccsc3)cc21 (centres unmarked) [compound 145]	> 1000 nM	1380 nM
OC1(C(F)(F)F)c2ccccc2-c2c(-c3cccnc3)cccc21 (centres unmarked) [compound 146]	100 to 1000 nM	213 nM
O=C1CCCN1c1ccc2c(c1)C(O)(C(F)(F)F)c1ccccc1-2 (centres unmarked) [compound 147]	> 1000 nM	1730 nM
OC1(C(F)(F)F)c2ccccc2-c2ccc(N3CCCCC3)cc21 (centres unmarked) [compound 148]	> 1000 nM	8450 nM
OC1(C(F)(F)F)c2ccccc2-c2ccc(-c3ccccc3F)cc21 (centres unmarked) [compound 149]	> 1000 nM	1220 nM
OC1(C(F)(F)F)c2ccccc2-c2ccc(-c3ccccc3Cl)cc21 (centres unmarked) [compound 150]	> 1000 nM	6840 nM
Cc1ccccc1-c1ccc2c(c1)C(O)(C(F)(F)F)c1ccccc1-2 (centres unmarked) [compound 151]	> 1000 nM	5210 nM
COC(=O)c1cccc(-c2ccc3c(c2)C(O)(C(F)(F)F)c2ccccc2-3)c1 (centres unmarked) [compound 154]	100 to 1000 nM	309 nM
O=C(O)c1cccc(-c2ccc3c(c2)C(O)(C(F)(F)F)c2ccccc2-3)c1 (centres unmarked) [compound 155]	100 to 1000 nM	805 nM
NC(=O)c1cccc(-c2ccc3c(c2)C(O)(C(F)(F)F)c2ccccc2-3)c1 (centres unmarked) [compound 156]	100 to 1000 nM	464 nM
CNC(=O)c1cccc(-c2ccc3c(c2)C(O)(C(F)(F)F)c2ccccc2-3)c1 (centres unmarked) [compound 157]	100 to 1000 nM	358 nM
CN(C)C(=O)c1cccc(-c2ccc3c(c2)C(O)(C(F)(F)F)c2ccccc2-3)c1 (centres unmarked) [compound 158]	100 to 1000 nM	221 nM
OC1(C(F)(F)F)c2ccccc2-c2c(Cl)cc(-c3ccccc3)cc21 (centres unmarked) [compound 159]	100 to 1000 nM	318 nM
OC1(C(F)(F)F)c2ccccc2-c2ccc(N3CCCC3)cc21 (centres unmarked) [compound 160]	> 1000 nM	2540 nM
OC1(C(F)(F)F)c2ccccc2-c2ccc(N3CCOCC3)cc21 (centres unmarked) [compound 161]	> 1000 nM	2110 nM

SMILES	IC50 [1]	IC50 [2]
CN1CCN(c2ccc3c(c2)C(O)(C(F)(F)F)c2ccccc2-3)CC1 (centres unmarked) [compound 162]	> 1000 nM	2890 nM
CC(C)(C)OC(=O)N1CCN(c2ccc3c(c2)C(O)(C(F)(F)F)c2ccccc2-3)CC1 (centres unmarked) [compound 163]	100 to 1000 nM	232 nM
OC1(C(F)(F)F)c2ccccc2-c2ccc(N3CCNCC3)cc21 (centres unmarked) [compound 164]	> 1000 nM	2750 nM
CC(=O)N1CCN(c2ccc3c(c2)C(O)(C(F)(F)F)c2ccccc2-3)CC1 (centres unmarked) [compound 165]	100 to 1000 nM	957 nM
OC1(C(F)(F)F)c2ccccc2-c2ccc(Nc3ccccc3)cc21 (centres unmarked) [compound 166]	> 1000 nM	5900 nM
COC(=O)C1CCCN1C(=O)c1ccc2c(c1)C(O)(C(F)(F)F)c1ccccc1-2 (centres unmarked) [compound 167]	> 1000 nM	1950 nM
O=C(O)C1CCCN1C(=O)c1ccc2c(c1)C(O)(C(F)(F)F)c1ccccc1-2 (centres unmarked) [compound 168]	> 1000 nM	> 10000 nM
OC1(C(F)(F)F)c2ccccc2-c2ccc(C3CCCCC3)cc21 (centres unmarked) [compound 169]	> 1000 nM	7360 nM
COc1ccccc1-c1ccc2c(c1)C(O)(C(F)(F)F)c1ccccc1-2 (centres unmarked) [compound 170]	> 1000 nM	6740 nM
OC1(C(F)(F)F)c2ccccc2-c2ccc(-c3ccc(F)cc3)cc21 (centres unmarked) [compound 171]	100 to 1000 nM	951 nM
COc1ccc(-c2ccc3c(c2)C(O)(C(F)(F)F)c2ccccc2-3)cc1 (centres unmarked) [compound 172]	100 to 1000 nM	779 nM
CCOC(=O)c1ccccc1-c1ccc2c(c1)C(O)(C(F)(F)F)c1ccccc1-2 (centres unmarked) [compound 173]	> 1000 nM	> 10000 nM
NC(=O)c1cc(C(=O)N2CCC2)cc2c1-c1ccccc1C2(O)C(F)(F)F (centres unmarked) [compound 174]	< 100 nM	66 nM
CCOC(=O)c1ccc(-c2ccc3c(c2)C(O)(C(F)(F)F)c2ccccc2-3)cc1 (centres unmarked) [compound 175]	100 to 1000 nM	517 nM
NC(=O)C1CCCN1C(=O)c1ccc2c(c1)C(O)(C(F)(F)F)c1ccccc1-2 (centres unmarked) [compound 176]	> 1000 nM	8010 nM
CNC(=O)C1CCCN1C(=O)c1ccc2c(c1)C(O)(C(F)(F)F)c1ccccc1-2 (centres unmarked) [compound 177]	> 1000 nM	9190 nM
CN(C)C(=O)C1CCCN1C(=O)c1ccc2c(c1)C(O)(C(F)(F)F)c1ccccc1-2 (centres unmarked) [compound 178]	> 1000 nM	> 10000 nM
OC1(C(F)(F)F)c2ccccc2-c2ccc(-c3ccc(Cl)cc3)cc21 (centres unmarked) [compound 179]	> 1000 nM	1340 nM
O=C(O)c1ccccc1-c1ccc2c(c1)C(O)(C(F)(F)F)c1ccccc1-2 (centres unmarked) [compound 180]	> 1000 nM	> 10000 nM
Cc1ccc(-c2ccc3c(c2)C(O)(C(F)(F)F)c2ccccc2-3)cc1 (centres unmarked) [compound 181]	> 1000 nM	1510 nM
NC(=O)c1ccccc1-c1ccc2c(c1)C(O)(C(F)(F)F)c1ccccc1-2 (centres unmarked) [compound 182]	> 1000 nM	> 10000 nM
CNC(=O)c1ccccc1-c1ccc2c(c1)C(O)(C(F)(F)F)c1ccccc1-2 (centres unmarked) [compound 183]	> 1000 nM	> 10000 nM
CN(C)C(=O)c1ccccc1-c1ccc2c(c1)C(O)(C(F)(F)F)c1ccccc1-2 (centres unmarked) [compound 184]	> 1000 nM	> 10000 nM
OC1(C(F)(F)F)c2ccccc2-c2c(Cl)cc(-c3ccncc3)cc21 (centres unmarked) [compound 185]	< 100 nM	53 nM

SMILES	IC50 [1]	IC50 [2]
CN(c1ccccc1)c1ccc2c(c1)C(O)(C(F)(F)F)c1ccccc1-2 (centres unmarked) [compound 186]	> 1000 nM	5910 nM
OC1(C(F)(F)F)c2ccccc2-c2ccc(Oc3ccccc3)cc21 (centres unmarked) [compound 187]	> 1000 nM	2480 nM
O=C(O)c1ccc(-c2ccc3c(c2)C(O)(C(F)(F)F)c2ccccc2-3)cc1 (centres unmarked) [compound 188]	100 to 1000 nM	383 nM
OCc1ccccc1-c1ccc2c(c1)C(O)(C(F)(F)F)c1ccccc1-2 (centres unmarked) [compound 189]	> 1000 nM	6000 nM
CC(=O)Nc1ccccc1-c1ccc2c(c1)C(O)(C(F)(F)F)c1ccccc1-2 (centres unmarked) [compound 190]	> 1000 nM	> 10000 nM
CNC(=O)c1ccc(-c2ccc3c(c2)C(O)(C(F)(F)F)c2ccccc2-3)cc1 (centres unmarked) [compound 191]	100 to 1000 nM	216 nM
CN(C)C(=O)c1ccc(-c2ccc3c(c2)C(O)(C(F)(F)F)c2ccccc2-3)cc1 (centres unmarked) [compound 192]	100 to 1000 nM	182 nM
Nc1ccc(-c2ccc3c(c2)C(O)(C(F)(F)F)c2ccccc2-3)cc1 (centres unmarked) [compound 193]	100 to 1000 nM	560 nM
OCc1ccc(-c2ccc3c(c2)C(O)(C(F)(F)F)c2ccccc2-3)cc1 (centres unmarked) [compound 194]	100 to 1000 nM	368 nM
O=C(c1ccc2c(c1)C(O)(C(F)(F)F)c1ccccc1-2)N1CCCC1CO (centres unmarked) [compound 195]	> 1000 nM	5480 nM
Cc1cnc2c(c1)C(O)(C(F)(F)F)c1ccccc1-2 (centres unmarked) [compound 196]	100 to 1000 nM	475 nM
CC(=O)Nc1ccc(-c2ccc3c(c2)C(O)(C(F)(F)F)c2ccccc2-3)cc1 (centres unmarked) [compound 197]	100 to 1000 nM	298 nM
Cc1cc(-c2ccc3c(c2)C(O)(C(F)(F)F)c2ccccc2-3)ccn1 (centres unmarked) [compound 198]	100 to 1000 nM	126 nM
NC(=O)c1ccc(-c2ccc3c(c2)C(O)(C(F)(F)F)c2ccccc2-3)cc1 (centres unmarked) [compound 199]	100 to 1000 nM	182 nM
CCN(CC)C(=O)C1CN(C(=O)c2ccc3c(c2)C(O)(C(F)(F)F)c2ccccc2-3)C1 (centres unmarked) [compound 200]	100 to 1000 nM	236 nM
O=C(c1ccc2c(c1)C(O)(C(F)(F)F)c1ccccc1-2)N1CC(C(=O)N2CCCC2)C1 (centres unmarked) [compound 201]	100 to 1000 nM	162 nM
O=C(c1ccc2c(c1)C(O)(C(F)(F)F)c1ccccc1-2)N1CC(C(=O)N2CCCCC2)C1 (centres unmarked) [compound 202]	100 to 1000 nM	247 nM
O=C(c1ccc2c(c1)C(O)(C(F)(F)F)c1ccccc1-2)N1CC(C(=O)N2CCC(O)CC2)C1 (centres unmarked) [compound 203]	100 to 1000 nM	423 nM
Cc1ccncc1-c1cccc2c1-c1ccccc1C2(O)C(F)(F)F (centres unmarked) [compound 204]	> 1000 nM	> 10000 nM
Oc1ccc(-c2ccc3c(c2)C(O)(C(F)(F)F)c2ccccc2-3)cc1 (centres unmarked) [compound 205]	100 to 1000 nM	707 nM
COC(=O)C1CCN(C(=O)c2ccc3c(c2)C(O)(C(F)(F)F)c2ccccc2-3)C1 (centres unmarked) [compound 206]	> 1000 nM	2240 nM
CCC(=O)N1CCN(c2ccc3c(c2)C(O)(C(F)(F)F)c2ccccc2-3)CC1 (centres unmarked) [compound 207]	100 to 1000 nM	998 nM
